Data on 25 compounds can be found in US8377974B2 (Millennium Pharmaceuticals, Inc., priority 2004, dated 2013).

Each structure is given as a SMILES string.

T1 sequence (P00742 235-488 limits assumed): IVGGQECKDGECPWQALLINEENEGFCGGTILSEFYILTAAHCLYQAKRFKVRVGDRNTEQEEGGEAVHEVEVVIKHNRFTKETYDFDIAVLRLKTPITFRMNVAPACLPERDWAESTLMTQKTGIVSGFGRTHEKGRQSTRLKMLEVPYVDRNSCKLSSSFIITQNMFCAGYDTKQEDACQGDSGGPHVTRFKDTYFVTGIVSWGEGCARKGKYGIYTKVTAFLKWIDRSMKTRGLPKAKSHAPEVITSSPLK
T1 sequence (P00742 41-179 partner limits assumed): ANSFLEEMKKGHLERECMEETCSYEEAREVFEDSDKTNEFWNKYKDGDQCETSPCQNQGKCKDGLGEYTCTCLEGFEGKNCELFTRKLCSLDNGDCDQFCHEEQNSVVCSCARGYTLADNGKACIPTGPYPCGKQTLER

The assay addresses T1, human plasma protein factor Xa (Homo sapiens, UniProt P00742).
T1 construct: measure proteolytic activity of the enzyme (factor Xa); purchased Haematologic Technologies (Essex Junction, Vt.); host or cells: human plasma
The assay is described as follows: Factor Xa IC50 determination: cleavage of paranitroanilide substrate S-2765 in 96-well plates. The format is biochemical. The note with it: fXa 1 nM, S-2765 100 μM, Tris buffered saline pH 7.4, room temperature. In short, it runs like this: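 Human plasma factor Xa (1 nM) preincubated 5 min at room temperature with inhibitor (0.01 nM–10 μM final) in Tris-buffered saline pH 7.4 with 5 mM CaCl2, 0.1% BSA, 5% DMSO. S-2765 at 100 μM final; hydrolysis at 405 nm over 2 min. IC50 from 4-parameter fit of initial velocities.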
What is called IC50 is the concentration needed to halve the response being measured. For the compound `CN1CCN=C1c1ccc(-c2nc(CNC(=O)c3ccc(Cl)s3)cs2)cc1` [Example 351, 5-Chloro-N-((2-(4-(1-methyl-4,5-dihydro-1H-imidazol-2-yl)phenyl)thiazol-4-yl)methyl)thiophene-2-carboxamide], the IC50 lay within 100 to 500 nM.

Consider `N=C(c1ccc(-c2nc(CNC(=O)c3ccc(Cl)s3)cs2)cc1)N1CCCC1` [Example 352, 5-Chloro-N-((2-(4-(imino(pyrrolidin-1-yl)methyl)phenyl)thiazol-4-yl)methyl)thiophene-2-carboxamide], for which the IC50 is at most 100 nM.

In the case of `N=C(c1ccc(-c2nc(CNC(=O)c3ccc(Cl)s3)cs2)cc1)N1CCCCC1` [Example 353, 5-Chloro-N-((2-(4-(imino(piperidin-1-yl)methyl)phenyl)thiazol-4-yl)methyl)thiophene-2-carboxamide], the concentration for half-maximal inhibition (IC50) is 100 to 500 nM.

On to `CCOC(=O)C1CCN(C(=N)c2ccc(-c3nc(CNC(=O)c4ccc(Cl)s4)cs3)cc2)CC1` [Example 354, Ethyl 1-((4-(4-((2-chlorothiophene-5-carboxamido)methyl)thiazol-2-yl)phenyl)(imino)methyl)piperidine-4-carboxylate], for which the 50% inhibitory concentration (IC50) lay in the range of 100 to 500 nM.

`CN(C)CCN(C)C(=N)c1ccc(-c2nc(CNC(=O)c3ccc(Cl)s3)cs2)cc1` [Example 355, N-((2-(4-(N-(2-(Dimethylamino)ethyl)-N-methylcarbamimidoyl)phenyl)thiazol-4-yl)methyl)-5-chlorothiophene-2-carboxamide] returned an IC50 of at least 500 nM.

Take `CN(Cc1ccco1)C(=N)c1ccc(-c2nc(CNC(=O)c3ccc(Cl)s3)cs2)cc1` [Example 356, N-((2-(4-(N-(Furan-2-ylmethyl)-N-methylcarbamimidoyl)phenyl)thiazol-4-yl)methyl)-5-chlorothiophene-2-carboxamide]: the IC50 is at least 500 nM.

Take `C#CCN(C)C(=N)c1ccc(-c2nc(CNC(=O)c3ccc(Cl)s3)cs2)cc1` [Example 357, N-((2-(4-(N-Methyl-N-(prop-2-ynyl)carbamimidoyl)phenyl)thiazol-4-yl)methyl)-5-chlorothiophene-2-carboxamide]: the IC50 was at least 500 nM.

On to `CNC(=N)c1ccc(-c2nc(CNC(=O)c3ccc(Cl)s3)cs2)cc1` [Example 358, N-((2-(4-(N-Methylcarbamimidoyl)phenyl)thiazol-4-yl)methyl)-5-chlorothiophene-2-carboxamide], for which the IC50 is at least 500 nM.

`N=C(c1ccc(-c2coc(CNC(=O)c3ccc(Cl)s3)n2)cc1)N1CCCC1` [Example 359, 5-Chloro-N-((4-(4-(imino(pyrrolidin-1-yl)methyl)phenyl)oxazol-2-yl)methyl)thiophene-2-carboxamide]: the IC50 lay within 100 to 500 nM.

For `CN(C)C(=N)c1ccc(-c2csc(CNC(=O)c3ccc(Cl)s3)n2)cc1` [Example 360, N-((4-(4-(N,N-Dimethylcarbamimidoyl)phenyl)thiazol-2-yl)methyl)-5-chlorothiophene-2-carboxamide], the IC50 is at least 500 nM.

As for `CN1CCN=C1c1ccc(-c2csc(CNC(=O)c3ccc(Cl)s3)n2)cc1` [Example 361, 5-Chloro-N-((4-(4-(1-methyl-4,5-dihydro-1H-imidazol-2-yl)phenyl)thiazol-2-yl)methyl)thiophene-2-carboxamide], the IC50 is at least 500 nM.

`N=C(c1ccc(-c2csc(CNC(=O)c3ccc(Cl)s3)n2)cc1)N1CCCC1` [Example 362, 5-Chloro-N-((4-(4-(imino(pyrrolidin-1-yl)methyl)phenyl)thiazol-2-yl)methyl)thiophene-2-carboxamide] returned an IC50 of at least 500 nM.

Turning to `N=C(c1ccc(-c2csc(CNC(=O)c3ccc(Cl)s3)n2)cc1)N1CCCCC1` [Example 363, 5-Chloro-N-((4-(4-(imino(piperidin-1-yl)methyl)phenyl)thiazol-2-yl)methyl)thiophene-2-carboxamide], the IC50 was at least 500 nM.

`CN(C)C(=N)c1ccc(-n2cnc(CNC(=O)c3ccc(Cl)s3)c2)cc1` [Example 364, N-((1-(4-(N,N-Dimethylcarbamimidoyl)phenyl)-1H-imidazol-4-yl)methyl)-5-chlorothiophene-2-carboxamide]: the IC50 was at most 100 nM.

Regarding `CN1CCN=C1c1ccc(-n2cnc(CNC(=O)c3ccc(Cl)s3)c2)cc1` [Example 365, 5-Chloro-N-((1-(4-(1-methyl-4,5-dihydro-1H-imidazol-2-yl)phenyl)-1H-imidazol-4-yl)methyl)thiophene-2-carboxamide], the IC50 is at most 100 nM.

Turning to `N=C(c1ccc(-n2cnc(CNC(=O)c3ccc(Cl)s3)c2)cc1)N1CCC1` [Example 366, N-((1-(4-(Azetidin-1-yl(imino)methyl)phenyl)-1H-imidazol-4-yl)methyl)-5-chlorothiophene-2-carboxamide], the IC50 was at most 100 nM.

Turning to `N=C(c1ccc(-n2cnc(CNC(=O)c3ccc(Cl)s3)c2)cc1)N1CCCC1` [Example 367, 5-Chloro-N-((1-(4-(imino(pyrrolidin-1-yl)methyl)phenyl)-1H-imidazol-4-yl)methyl)thiophene-2-carboxamide], the IC50 was at most 100 nM.

In the case of `N=C(c1ccc(-n2cnc(CNC(=O)c3ccc(Cl)s3)c2)cc1)N1CCCCC1` [Example 368, 5-Chloro-N-((1-(4-(imino(piperidin-1-yl)methyl)phenyl)-1H-imidazol-4-yl)methyl)thiophene-2-carboxamide], the IC50 is at most 100 nM.

`CN(C)C(=N)c1ccc(-c2cncc(CNC(=O)c3ccc(Cl)s3)c2)cc1` [Example 369, N-((5-(4-(N,N-Dimethylcarbamimidoyl)phenyl)pyridin-3-yl)methyl)-5-chlorothiophene-2-carboxamide] gave an IC50 of at most 100 nM.

As to `CN1CCN=C1c1ccc(-c2cncc(CNC(=O)c3ccc(Cl)s3)c2)cc1` [Example 370, 5-Chloro-N-((5-(4-(1-methyl-4,5-dihydro-1H-imidazol-2-yl)phenyl)pyridin-3-yl)methyl)thiophene-2-carboxamide], the IC50 is at most 100 nM.

`N=C(c1ccc(-c2cncc(CNC(=O)c3ccc(Cl)s3)c2)cc1)N1CCC1` [Example 371, N-((5-(4-(Azetidin-1-yl(imino)methyl)phenyl)pyridin-3-yl)methyl)-5-chlorothiophene-2-carboxamide] showed an IC50 of at most 100 nM.

The compound `N=C(c1ccc(-c2cncc(CNC(=O)c3ccc(Cl)s3)c2)cc1)N1CCCC1` [Example 372, 5-Chloro-N-((5-(4-(imino(pyrrolidin-1-yl)methyl)phenyl)pyridin-3-yl)methyl)thiophene-2-carboxamide] returned an IC50 of at most 100 nM.

For `N=C(c1ccc(-c2cncc(CNC(=O)c3ccc(Cl)s3)c2)cc1)N1CCCCC1` [Example 373, 5-Chloro-N-((5-(4-(imino(piperidin-1-yl)methyl)phenyl)pyridin-3-yl)methyl)thiophene-2-carboxamide], the IC50 was at most 100 nM.

`CN(C)C(=N)c1ccc(-c2ccc(F)c(CNC(=O)c3ccc(Cl)s3)c2)cc1` [Example 374, N-((5-(4-(N,N-Dimethylcarbamimidoyl)phenyl)-2-fluorophenyl)methyl)-5-chlorothiophene-2-carboxamide] gave an IC50 of at most 100 nM.

`CN1CCN=C1c1ccc(-c2ccc(F)c(CNC(=O)c3ccc(Cl)s3)c2)cc1` [Example 375, 5-Chloro-N-((5-(4-(1-methyl-4,5-dihydro-1H-imidazol-2-yl)phenyl)-2-fluorophenyl)methyl)thiophene-2-carboxamide]: the half-maximal inhibitory concentration (IC50) is at most 100 nM.
